Assay results reported in paper PMC11274128, “Modification and Synergistic Studies of a Novel Frog Antimicrobial Peptide against Pseudomonas aeruginosa Biofilms” (Antibiotics, 2024).
Like-named read-outs stand apart in the source and are kept apart here. Bridge positions count the residues as written; N and C are the ends. Peptide text beside a SMILES is read from it.

Assays:
A. baumannii BAA 747 = conditions: checkerboard MIC, planktonic A. baumannii BAA 747, 37 °C, 24 h, OD 550 nm
Method: (§1) The bacteria were cultured, subcultured, diluted, and incubated as the methods of the MIC assay. The pure peptides and antibiotics were weighed and, respectively, dissolved in DMSO and dd water to make the final concentration of 2× MIC. […] Different concentrations of peptide and antibiotic solutions were added to a 96-well plate in the form of a checkerboard grid. The blank control and growth control were still 100 µL medium and 100 µL bacterial culture. The plate was incubated at 37 °C for 24 h. After that, the plate reader was used to monitor the absorbance of each well at 550 nm (The Synergy TM HT, BioTek, Winooski, VT, USA).
(§2) Parameter fractional inhibitory concentration indices (FICIs) were used to evaluate the synergistic effect, and the value of that was calculated as follows:FICI = FICa + FICb FICa = MIC combination peptide/MIC single peptide FICb = MIC combination antibiotic/MIC single antibiotic
(§3) The FICI value was interpreted as “synergy” (FICI ≤ 0.5), “no interaction” (0.5 < FICI ≤ 4), or “antagonism” (FICI > 4).

E. coli ATCC 8739 = conditions: checkerboard MIC, planktonic E. coli ATCC 8739, 37 °C, 24 h, OD 550 nm
Method: as §1, §2, §3

G+ Bacteria = assay: Geometric mean of MICs and TI value; format: cell-based; conditions: geometric mean of MICs against tested Gram-positive bacteria
Method: The therapeutic potential of antimicrobial agents was valued based on their selectivity toward bacteria in reference to erythrocytes. The TI value was calculated from the results of antibacterial and haemolysis experiments of peptides using the following formula:TI value = HC10 / GMMICs.
GM was the geometric mean of MICs against all tested bacteria.

[1] = peptide combined with gentamicin
[2] = peptide combined with levofloxacin
[3] = peptide combined with vancomycin

Structure (SMILES)	FICI (A. baumannii BAA 747; peptide combined with cefepime)	FICI (A. baumannii BAA 747; [1])	FICI (A. baumannii BAA 747; [2])	FICI (A. baumannii BAA 747; [3])	FICI (E. coli ATCC 8739; peptide combined with cefepime)	FICI (E. coli ATCC 8739; [1])	FICI (E. coli ATCC 8739; [2])	FICI (E. coli ATCC 8739; [3])	GM (geometric mean of MICs), G+ Bacteria (G+ Bacteria) [µM]
CC[C@H](C)[C@H](NC(=O)[C@H](CCCCN)NC(=O)[C@H](CCCCN)NC(=O)CNC(=O)[C@H](C)NC(=O)CNC(=O)[C@H](CC(C)C)NC(=O)[C@@H](NC(=O)CNC(=O)[C@H](CO)NC(=O)[C@H](CC(C)C)NC(=O)[C@H](CC(C)C)NC(=O)CN)C(C)C)C(=O)N[C@H](C(=O)N[C@H]1CSSC[C@@H](C(=O)O)NC(=O)[C@H](CCCNC(=N)N)NC(=O)CNC(=O)[C@H](CO)NC(=O)[C@H](CC(C)C)NC(=O)CNC1=O)C(C)C [Nigrosin-6VL] (H-GLLSGVLGAGKKIVCGLSGRC-OH; disulfide 15-21)	1	0.1875	>4	1.25	0.375	0.125	0.375	1.125	101.59
CC[C@H](C)[C@H](NC(=O)[C@H](CCCCN)NC(=O)[C@H](CCCCN)NC(=O)CNC(=O)[C@H](C)NC(=O)[C@H](CCCNC(=N)N)NC(=O)[C@H](CC(C)C)NC(=O)[C@@H](NC(=O)[C@H](C)NC(=O)[C@H](CCCNC(=N)N)NC(=O)[C@H](CC(C)C)NC(=O)[C@H](CC(C)C)NC(=O)CN)C(C)C)C(=O)N[C@H](C(=O)N[C@H]1CSSC[C@@H](C(=O)O)NC(=O)[C@H](CCCNC(=N)N)NC(=O)CNC(=O)[C@H](CO)NC(=O)[C@H](CC(C)C)NC(=O)CNC1=O)C(C)C [Peptide 2170-2R] (H-GLLRAVLRAGKKIVCGLSGRC-OH; disulfide 15-21)	1.5	0.25	>4	0.625	0.5312	0.125	0.375	>4	–
